Source: patent publication US9486536B2 (Immunomedics, Inc., priority 2013, dated 2016)

Tests used:
[1] = tested on: NCI-N87 human gastric carcinoma xenografts; experiment: therapy of NCI-N87 xenografts in nude mice; assay type: in vivo; details: for therapeutic response (FIG. 3): 2.25 mg/kg protein dose twice weekly×2 weeks, compared with hMN-14 conjugate; for effect on tumors, one treatment cycle: 4×45 μg
Method: FIG. 3A. Therapy in nude mice bearing s.c. human tumor xenografts using 2.25 mg/kg protein dose (0.064 mg/kg of drug dose) of MAb-P2PDox conjugates twice weekly×2 weeks in nude mice (n=7) with NCI-N87 human gastric carcinoma xenografts.
Tumor size was determined by caliper measurements of length (L) and width (W) with tumor volume calculated as (L×W^2)/2. Tumors were measured and mice weighed twice a week. Mice were euthanized if their tumors reached >1 cm^3 in size, lost greater than 15% of their starting body weight, or otherwise became moribund. Statistical analysis for the tumor growth data was based on area under the curve (AUC) and survival time. Profiles of individual tumor growth were obtained through linear curve modeling. An f-test was employed to determine equality of variance between groups prior to statistical analysis of growth curves. A two-tailed t-test was used to assess statistical significance between all the various treatment groups and non-specific controls. For the saline control analysis a one-tailed t-test was used to assess significance. Survival studies were analyzed using Kaplan-Meier plots (log-rank analysis), using the Prism GraphPad Software (v4.03) software package (Advanced Graphics Software, Inc.; Encinitas, Calif.). All doses in preclinical experiments are expressed in antibody amounts. In terms of drug, 100 μg of antibody (5 mg/kg) in a 20-g mouse, for example, carries 1.4 μg-2.8 μg ([…]) of P2PDox equivalent dose when using an ADC with 3-6 drugs/IgG.
Using this dosing regimen, we examined the therapeutic effect of hRS7-P2PDox in 2 human tumor xenograft models, Capan-1 (pancreatic cancer) and NCI-N87 (gastric cancer). Therapy began 7 days after tumor transplantation in nude mice.
Anti-TROP-2 antibody conjugate, hRS7-P2PDox, was evaluated in nude mice bearing NCI-N87 human gastric cancer xenografts by administering a single bolus protein dose of 9 mg/kg, 6.75 mg/kg, 4.5 mg/kg, 2.25 mg/kg, or 1 mg/kg. The therapy was started when the mean tumor volume (mTV) was 0.256 cm^3.
Further in vivo efficacy studies were performed in nude mice implanted with NCI-N87 human gastric cancer xenografts (FIG. 13A-F).
The effect of varying dosage schedule on anti-tumor efficacy was examined (FIG. 14, FIG. 19A-G). The experiment began 9 days after tumor implantation when mean tumor volume for all groups was 0.383 cm^3, and ended on day 93 (84 days after initiation of therapy).

[2] = tested on: Capan-1 human pancreatic adenocarcinoma xenografts; experiment: therapy of Capan-1 xenografts in nude mice; assay type: in vivo; details: for therapeutic response (FIG. 2): 2.25 mg/kg protein dose twice weekly×2 weeks, compared with hMN-14 conjugate
Method: FIG. 2. Therapy in nude mice bearing s.c. human tumor xenografts using 2.25 mg/kg protein dose (0.064 mg/kg of drug dose) of MAb-P2PDox conjugates twice weekly×2 weeks in nude mice with Capan-1 human pancreatic adenocarcinoma xenografts (n=5).
Tumors were measured and mice weighed twice a week.
At 63 days after Capan-1 tumor injection (with therapy starting at 1 days post-innoculation), 0 of 10 mice were alive in the saline control, 10 of 10 mice were alive in mice treated twice weekly×2 weeks with 45 μg of hPAM4-P2PDox, 2 of 10 mice were alive in mice treated twice weekly×2 weeks with 45 μg of hA20-P2PDox, 0 of 10 mice were alive in mice treated twice weekly×4 weeks with 250 μg of hPAM4-SN-38, and 0 of 10 mice were alive in mice treated twice weekly×4 weeks with 250 μg of h20-SN-38.

[3] = MTD study of hLL1 conjugates in mice
Method: The MTD of multiple injections, at a schedule of every four days for a total of four injections (q4dx4) was then determined, using protein doses between 25 μg to 150 μg per injection. At these doses, a cumulative dose of between 100 and 600 μg was given to the animals.

[4] = tested on: HIV-1IIIB/MuLV infected splenocytes; experiment: HIV-1/MuLV infected cell challenge in mice; assay type: in vivo; details: doses of 100-200 μg
Method: P4/D10-P2PDox is tested in vitro for its efficacy in eliminating HIV-1-infected cells among non-infected cells and in a mouse model by removing HIV-1/MuLV (murine leukemia virus) infected syngeneic cells from the intraperitoneal cavity.
A human T-cell line, CEM-1B, with a genetically integrated MuLV genome is infected with HIV-1IIIB, which leads to the production of pseudoviruses with the HIV-1 genome and the MuLV envelope (Adang et al., PNAS USA 1999, 96:12749-753; Hinkula et al., Cells Tissues Organs 2004, 177:169-184). These virus supernatants are used to infect splenocytes from C57B1/6×DBA F1 K^b/d mice transgenic for HLA-A201. Isogenic mice are challenged with HIV-1IIIB/MuLV infected splenocytes i.p. and are immediately given conjugated antibodies or free antibodies i.p. Ten days after challenge, mice are sacrificed and peritoneal cells collected. Peritoneal cells are pelleted and added to 1×10^6 HIV susceptible Jurkat T-cells or human PBMC grown in 24-well plates. From these secondary cultures, supernatant is removed and fresh medium added every 3-4 days. The amount of infectious HIV recovered in the supernatant is measured for 3 weeks by p24 ELISA.
To test the efficacy of P4/D10-P2PDox in vivo, mice are given isogeneic HIV/MuLV-infected cells together with conjugates intraperitoneally.

CEACAM5 = target: T1, CEACAM5 (Homo sapiens, UniProt P06731); experiment: antibody binding to target antigen after conjugation
T1 sequence (P06731 35-676): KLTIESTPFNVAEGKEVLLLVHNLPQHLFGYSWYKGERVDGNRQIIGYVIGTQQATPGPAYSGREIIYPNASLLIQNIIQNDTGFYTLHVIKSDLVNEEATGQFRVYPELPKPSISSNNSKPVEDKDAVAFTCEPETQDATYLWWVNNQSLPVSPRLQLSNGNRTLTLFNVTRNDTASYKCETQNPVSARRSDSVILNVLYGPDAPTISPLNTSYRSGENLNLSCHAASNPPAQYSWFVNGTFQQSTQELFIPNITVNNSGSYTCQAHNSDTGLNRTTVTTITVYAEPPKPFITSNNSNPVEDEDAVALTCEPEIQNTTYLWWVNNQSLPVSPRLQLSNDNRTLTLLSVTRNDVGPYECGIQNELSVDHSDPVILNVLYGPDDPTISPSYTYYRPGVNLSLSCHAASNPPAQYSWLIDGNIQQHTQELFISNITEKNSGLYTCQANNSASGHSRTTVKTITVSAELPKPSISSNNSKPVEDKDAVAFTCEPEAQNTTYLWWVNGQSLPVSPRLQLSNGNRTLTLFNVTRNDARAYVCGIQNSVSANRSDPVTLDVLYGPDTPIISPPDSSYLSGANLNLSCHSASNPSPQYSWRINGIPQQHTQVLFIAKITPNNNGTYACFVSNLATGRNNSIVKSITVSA
Method: Retention of antibody binding was confirmed by cell binding assays comparing binding of the conjugate to unconjugated antibody (Chari, 2008, Acc Chem Res 41:98-107). The potency of the conjugate was tested in a 4-day MTS assay using appropriate target cells.

[5] = tested on: DDD of the RII form of PKA; details: cited from earlier work
[6] = tested on: Capan-1, BxPC-3 and AsPC-1 human pancreatic tumor lines and AGS, NCI-N87 and LS147T human gastric and colonic tumor lines; experiment: cytotoxicity of P2PDox-mAb conjugates to target cells; assay type: cell-based; details: not shown
Description: The cytotoxicity of P2PDox-mAb conjugates to target cells was examined. hRS7-P2PDox and hMN-15-P2PDox were cytotoxic to MDA-MB-468, AG S, NCI-N87 and Capan-1 solid tumor cell lines (not shown). hMN-14-P2PDox was cytotoxic to Capan-1, BxPC-3 and AsPC-1 human pancreatic tumor lines and AGS, NCI-N87 and LS147T human gastric and colonic tumor lines (not shown). hLL2-P2PDOx was cytotoxic to Daudi, Raji, Ramos and JVM-3 hematopoietic tumor lines (not shown). IC50 values for the conjugates were in the nanomolar concentration range (not shown).

[7] = tested on: Trop-2-positive human pancreatic adenocarcinoma cell line (BxPC-3); experiment: ADCC with PBMCs, effector to target ratio 100:1; assay type: cell-based; details: 33.3 nM
Method: The ADCC activity of various hRS7-ADC conjugates was determined in comparison to hRS7 IgG (FIG. 17). PBMCs were purified from blood purchased from the Blood Center of New Jersey. A Trop-2-positive human pancreatic adenocarcinoma cell line (BxPC-3) was used as the target cell line with an effector to target ratio of 100:1. ADCC mediated by hRS7 IgG was compared to hRS7-Pro-2-PDox, hRS7-CL2A-SN-38, and the reduced and capped hRS7-NEM. All were used at 33.3 nM.

[8] = tested on: Chronic Lymphocytic Leukemia (CLL); experiment: treatment of CLL patients; assay type: in vivo, human
Method: Patients with previously untreated or relapsed CLL receive 4 doses of 70, 100 or 150 mg P2PDox-veltuzumab injected i.v. every two weeks. Only occasional mild to moderate transient injection reactions are seen and no other safety issues are observed, except for neutropenia, which can be controlled by interrupting therapy until improved or administering a G-CSF leukocyte stimulator, as per conventional practice. […] Objective responses are observed at all dose levels of P2PDox-veltuzumab, but with particularly high responses of 30% (mostly partial responses) at the highest dose. All serum samples evaluated for human anti-veltuzumab antibody (HAHA) are negative.

[9] = tested on: metastatic ductal adenocarcinoma of the pancreas; experiment: treatment of a patient with metastatic pancreatic cancer; assay type: in vivo, human
Method: A person with metastatic ductal adenocarcinoma of the pancreas, who has relapsed after prior therapies with FOLFIRINOX followed by Nab-taxol (Abraxane®) plus gemcitabine is given PAM4-P2PDox ADC at a dose of 120 mg every other week for 4 courses, and after a 3-week delay, another course of 2 injections 2 weeks apart are given intravenously.

[10] = twice weekly×2 weeks with 45 μg

hRS7-SN-38 [reference compound]
therapeutic response (FIG. 3) [1]: better therapeutic responses
therapeutic response (FIG. 2) [2]: better therapeutic responses

hLL1-P2PDox
signs of toxicity (weight loss) ([3]; 25 μg i.v. q4dx4): no signs of toxicity
potency compared with 2-PDox conjugate of hLL1 in MTD study ([3]; not shown): much more potent
MTD for fractionated dosing ([3]; protein dose, every 4 days for 2 weeks (q4dx4), after analysis and repetition of the experiment): 45 µg
MTD for multiple injections ([3]; q4dx4, from this experiment): 25 µg
dose tolerated when administered as a single injection ([3]; single injection (not shown)): 100 µg
effect on tumors, one treatment cycle [1]: little effect on tumor progression
protection by control conjugates [4]: None of the P2PDox-conjugated control antibodies (hLL1 or hRS7) provide any protection

P2PDox-hMN-24: P2PDox conjugate printed as hMN-24 (anti-CEACAM5)
effect of conjugation on antibody binding (CEACAM5): lack of effect of conjugation on antibody binding to target antigen

QIEYVAKQIVDYAIHQA [SuperAKAP-IS]
selectivity for the RII isoform of PKA compared with the RI isoform [5]: five order of magnitude higher selectivity

QIEYLAKQIVDNAIQQA [AKAP-IS]
Kd ([5]; read-out: binding constant for DDD): 0.4 nM

hMN-14-P2PDox
effect on tumors, one treatment cycle [1]: little effect on tumor progression
cytotoxicity [6]: cytotoxic

hRS7 IgG: unconjugated humanized anti-TROP-2 antibody
specific lysis (ADCC) [7]: 8.5%

hA20-P2PDox
therapeutic response (FIG. 3) [1]: ineffective
effect on tumors, one treatment cycle [1]: little effect on tumor progression
effect on survival ([1]; same dosage schedules (45 μg q4dx4, 90 μg weekly×2, 180 μg single)): no effect on survival
therapeutic response (FIG. 2) [2]: ineffective
mice alive at 63 days after tumor injection [2, 10]: 2 of 10
objective responses at the highest dose ([8]; 150 mg i.v. every two weeks, 4 doses, mostly partial responses): 30%
B-cell and CLL ablation ([8]; all dosage levels): Rapid B-cell and CLL ablation
human anti-veltuzumab antibody (HAHA) in serum samples ([8]; human, in vivo): negative

B1: hPAM4-P2PDox (conjugate, chains of the INN, looked up)
VH: QVQLQQSGAEVKKPGASVKVSCEASGYTFPSYVLHWVKQAPGQGLEWIGYINPYNDGTQYNEKFKGKATLTRDTSINTAYMELSRLRSDDTAVYYCARGFGGSYGFAYWGQGTLVTVSS
VL: DIQLTQSPSSLSASVGDRVTMTCSASSSVSSSYLYWYQQKPGKAPKLWIYSTSNLASGVPARFSGSGSGTDFTLTISSLQPEDSASYFCHQWNRYPYTFGGGTRLEIK
modifications: P2PDox (pro-2-pyrrolinodoxorubicin) payload
inhibition of tumor growth compared with the SN-38 conjugate of the same antibody ([2]; not shown): more effective at inhibiting growth
mice alive at 63 days after tumor injection [2, 10]: 10 of 10
shrinkage of the sum of the 3 target lesions in the liver ([9]; 120 mg every other week, CT at 8 weeks): 18%
reduction of CA19-9 blood titer ([9]; baseline value of 12,400): 55%
hematological toxicity after the first course ([9]; recovers before the second course): Grade 3 neutropenia

B2: hPAM4-SN-38: hPAM4 antibody conjugated to SN-38 (conjugate, chains of the INN, looked up)
VH: QVQLQQSGAEVKKPGASVKVSCEASGYTFPSYVLHWVKQAPGQGLEWIGYINPYNDGTQYNEKFKGKATLTRDTSINTAYMELSRLRSDDTAVYYCARGFGGSYGFAYWGQGTLVTVSS
VL: DIQLTQSPSSLSASVGDRVTMTCSASSSVSSSYLYWYQQKPGKAPKLWIYSTSNLASGVPARFSGSGSGTDFTLTISSLQPEDSASYFCHQWNRYPYTFGGGTRLEIK
modifications: SN-38 conjugate
mice alive at 63 days after tumor injection ([2]; twice weekly×4 weeks with 250 μg): 0 of 10
